Source: patent US8957093B2, “N-biphenylmethylindole modulators of PPARG” (The Scripps Research Institute, priority 2011, dated 2015)
Read-outs that look alike come from different tables or passages of the source.

Molecular target: GST-PPARG-LBD (Homo sapiens (Human), UniProt P37231)
Assay: Lanthascreen PPARG competitive binding assay (Invitrogen, TR-FRET)
Details: inc = incomplete curve, NA = not active; for IC50: read-out: IC50 (nM) Lantha
Protocol: Lanthascreen PPARG Competitive Binding Assay (Invitrogen)
The assay was performed according to manufacturer protocol. A mixture of […], 5 nM Tb-GST-antibody, 5 nM Fluormone Pan-PPAR Green, and serial dilutions of the experimental compound, beginning at 10 μM downwards, was added to wells of black 384-well low-volume plates (Greiner) to a total volume of 18 μL. All dilutions were made in TR-FRET assay buffer C. DMSO at 2% final concentration was used as a no-ligand control. Experiment was performed in triplicate, and incubated for 2 hours in the dark prior to assay read in Perkin Elmer ViewLux ultra HTS microplate reader. FRET signal was measured by excitation at 340 nm and emission at 520 nm for fluorescein and 490 nm for terbium. Fold change over DMSO was calculated using GraphPad Prism Software (La Jolla, Calif.) by calculating 520 nm/490 nm ratio. Graphs were plotted as fold change of FRET signal for compound treatment over DMSO-only control.

[1] = Lanthascreen PPARG competitive binding
[2] = Lanthascreen competitive binding

Chain of GST-PPARG-LBD (P37231 238-503): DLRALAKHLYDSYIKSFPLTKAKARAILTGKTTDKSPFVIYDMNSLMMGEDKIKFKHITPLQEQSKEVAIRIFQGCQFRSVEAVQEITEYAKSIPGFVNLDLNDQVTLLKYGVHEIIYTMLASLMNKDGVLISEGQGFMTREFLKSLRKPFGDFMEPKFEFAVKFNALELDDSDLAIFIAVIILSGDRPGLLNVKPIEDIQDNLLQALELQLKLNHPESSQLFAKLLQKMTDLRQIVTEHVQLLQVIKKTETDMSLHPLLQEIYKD

Compound	IC50 [2] [nM]	also measured
Cc1c(C)n(Cc2ccc(-c3ccccc3C#N)cc2)c2ccc(C(=O)N[C@@H](C)c3ccc(OC(C)C)cc3)cc12 [Example 278, (S)-1-((2′-cyano-[1,1′-biphenyl]-4-yl)methyl)-N-(1-(4-isopropoxyphenyl)ethyl)-2,3-dimethyl-1H-indole-5-carboxamide]		IC50 [1]: 808 nM
Cc1c(C)n(Cc2ccc(-c3ccccc3C#N)cc2)c2ccc(C(=O)N[C@@H](C)c3ccc(Cl)cc3)cc12 [Example 283, (S)—N-(1-(4-chlorophenyl)ethyl)-1-((2′-cyano-[1,1′-biphenyl]-4-yl)methyl)-2,3-dimethyl-1H-indole-5-carboxamide]		IC50 (nM) Lantha [1]: inc
Cc1c(C)n(Cc2ccc(-c3ccccc3C#N)cc2)c2ccc(C(=O)N[C@@H](C)c3cccc(C(F)(F)F)c3)cc12 [Example 282, (S)-1-((2′-cyano-[1,1′-biphenyl]-4-yl)methyl)-2,3-dimethyl-N-(1-(3-(trifluoromethyl)phenyl)ethyl)-1H-indole-5-carboxamide]		IC50 (nM) Lantha [1]: inc
Cc1c(C)n(Cc2ccc(-c3ccccc3C(=O)NCCO)cc2)c2ccc(C(=O)N[C@@H](C)c3cccc(C(C)C)c3)cc12 [Example 307, (S)-1-((2′-((2-Hydroxyethyl)carbamoyl)-[1,1′-biphenyl]-4-yl)methyl)-N-(1-(3-isopropylphenyl)ethyl)-2,3-dimethyl-1H-indole-5-carboxamide]		IC50 [1]: 600 nM
CCOc1cccc([C@H](C)NC(=O)c2ccc3c(c2)c(C)c(C)n3Cc2ccc(-c3ccccc3C#N)cc2)c1 [Example 280, (S)-1-((2′-cyano-[1,1′-biphenyl]-4-yl)methyl)-N-(1-(3-ethoxyphenyl)ethyl)-2,3-dimethyl-1H-indole-5-carboxamide]		IC50 (nM) Lantha [1]: inc
Cc1c(C)n(Cc2ccc(-c3ccccc3C(=O)O)cc2)c2ccc(C(=O)NCC(=O)c3ccccc3)cc12 [compound 31, 4′-((2,3-Dimethyl-5-((2-oxo-2-phenylethyl)carbamoyl)-1H-indol-1-yl)methyl)-[1,1′-biphenyl]-2-carboxylic acid]	244	
C[C@H](NC(=O)c1ccc2c(ccn2Cc2ccc(-c3ccc(S(C)(=O)=O)cc3)cc2)c1)c1ccc([N+](=O)[O-])cc1 [Example 50, (S)-1-((4′-(Methylsulfonyl)-[1,1′-biphenyl]-4-yl)methyl)-N-(1-(4-nitrophenyl)ethyl)-1H-indole-5-carboxamide]	> 1000	
Cc1ccc(-c2ccc(Cn3ccc4cc(C(=O)N[C@@H](C)c5ccc([N+](=O)[O-])cc5)ccc43)cc2)cc1 [Example 57, (S)-1-((4′-Methyl-[1,1′-biphenyl]-4-yl)methyl)-N-(1-(4-nitrophenyl)ethyl)-1H-indole-5-carboxamide]	> 1000	
Cc1c(C)n(Cc2ccc(-c3ccccc3C#N)cc2)c2ccc(C(=O)N[C@@H](C)c3ccc(C(C)(C)C)cc3)cc12 [Example 184, (S)—N-(1-(4-(tert-butyl)phenyl)ethyl)-1-((2′-cyano-[1,1′-biphenyl]-4-yl)methyl)-2,3-dimethyl-1H-indole-5-carboxamide]		IC50 (nM) Lantha [2]: ^2inc^
CCC(NC(=O)c1ccc2c(ccn2Cc2ccccc2-c2ccccc2C(=O)O)c1)c1ccccc1 (stereo not shown) [Example 68, 2′-((5-((1-phenylpropyl)carbamoyl)-1H-indol-1-yl)methyl)-[1,1′-biphenyl]-2-carboxylic acid]	> 1000	
COc1c(F)cccc1[C@H](C)NC(=O)c1ccc2c(c1)c(C)c(C)n2Cc1ccc(-c2ccccc2C(=O)O)cc1 [Example 177, (S)-4′-((5-((1-(3-fluoro-2-methoxyphenyl)ethyl)carbamoyl)-2,3-dimethyl-1H-indol-1-yl)methyl)-[1,1′-biphenyl]-2-carboxylic acid]	21	
COc1ccc(CNC(=O)c2ccc3c(c2)c(C)c(C)n3Cc2ccc(-c3ccccc3C(=O)O)cc2)cc1 [Example 104, 4′-((5-(4-methoxybenzylcarbamoyl)-2,3-dimethyl-1H-indol-1-yl)methyl)biphenyl-2-carboxylic acid]	7	
COc1ccccc1[C@H](C)NC(=O)c1ccc2c(c1)c(C)c(C)n2Cc1ccc(-c2ccccc2C#N)cc1 [Example 292, (S)-1-((2′-cyano-[1,1′-biphenyl]-4-yl)methyl)-N-(1-(2-methoxyphenyl)ethyl)-2,3-dimethyl-1H-indole-5-carboxamide]		IC50 (nM) Lantha [1]: inc
Cc1cn(Cc2ccc(-c3ccccc3C(=O)O)cc2)c2ccc(C(=O)N[C@@H](C)c3ccc(Br)cc3)cc12 [Example 132, (S)-4′-((5-((1-(4-Bromophenyl)ethyl)carbamoyl)-3-methyl-1H-indol-1-yl)methyl)-[1,1′-biphenyl]-2-carboxylic acid]	24	
Cc1c(C)n(Cc2ccc(-c3ccccc3C#N)cc2)c2ccc(C(=O)N[C@@H](C)c3cccc(F)c3)cc12 [Example 293, (S)-1-((2′-cyano-[1,1′-biphenyl]-4-yl)methyl)-N-(1-(3-fluorophenyl)ethyl)-2,3-dimethyl-1H-indole-5-carboxamide]		IC50 (nM) Lantha [1]: inc
Cc1c(C)n(Cc2ccc(-c3ccccc3C#N)cc2)c2ccc(C(=O)N[C@@H](C)c3cccc(Br)c3)cc12 [Example 284, (S)—N-(1-(3-bromophenyl)ethyl)-1-((2′-cyano-[1,1′-biphenyl]-4-yl)methyl)-2,3-dimethyl-1H-indole-5-carboxamide]		IC50 (nM) Lantha [1]: inc
Cc1c(C)n(Cc2ccc(-c3ccccc3C(=O)O)cc2)c2ccc(C(=O)NCc3ccc(C(F)(F)F)cc3)cc12 [Example 101, 4′-((2,3-dimethyl-5-(4-(trifluoromethyl)benzylcarbamoyl)-1H-indol-1-yl)methyl)biphenyl-2-carboxylic acid]	208	
C[C@H](NC(=O)c1ccc2c(ccn2Cc2ccc(-c3ccccc3C(=O)O)cc2)c1)c1ccc([N+](=O)[O-])cc1 [Example 61, (S)-4′-((5-((1-(4-Nitrophenyl)ethyl)carbamoyl)-1H-indol-1-yl)methyl)-[1,1′-biphenyl]-2-carboxylic acid]	646	
CCC(NC(=O)c1ccc2c(c1)c(C)c(C)n2Cc1ccccc1-c1cccc(C(=O)O)c1)c1ccccc1 (stereo not shown) [Example 126, 2′-((2,3-Dimethyl-5-((1-phenylpropyl)carbamoyl)-1H-indol-1-yl)methyl)-[1,1′-biphenyl]-3-carboxylic acid]	99	
Cc1c(C)n(Cc2ccc(-c3ccccc3C(=O)NCCN(C)C)cc2)c2ccc(C(=O)N[C@@H](C)c3cccc(C(C)C)c3)cc12 [Example 310, (S)-1-((2′-((2-(Dimethylamino)ethyl)carbamoyl)-[1,1′-biphenyl]-4-yl)methyl)-N-(1-(3-isopropylphenyl)ethyl)-2,3-dimethyl-1H-indole-5-carboxamide]		IC50 [1]: > 1000 nM
Cc1c(C)n(Cc2ccc(-c3ccccc3C(=O)O)cc2)c2ccc(C(=O)NCc3cccc(CN)c3)cc12 [Example 82, 4′-((5-(3-(aminomethyl)benzylcarbamoyl)-2,3-dimethyl-1H-indol-1-yl)methyl)biphenyl-2-carboxylic acid]	> 1000	
Cc1c(C)n(Cc2ccc(-c3ccccc3C(=O)O)cc2)c2ccc(C(=O)N[C@@H](C)c3ccccc3OC(F)(F)F)cc12 [Example 256, (S)-4′-((2,3-dimethyl-5-(1-(2-(trifluoromethoxy)phenyl)ethylcarbamoyl)-1H-indol-1-yl)methyl)biphenyl-2-carboxylic acid]	38	
Cc1c(C)n(Cc2ccc(-c3ccccc3C(=O)O)cc2)c2ccc(C(=O)N[C@@H](C)c3ccc4ccccc4c3)cc12 [compound 26, (S)-4′-((2,3-Dimethyl-5-((1-(naphthalen-2-yl)ethyl)carbamoyl)-1H-indol-1-yl)methyl)-[1,1′-biphenyl]-2-carboxylic acid]	> 1000	
Cc1c(C)n(Cc2ccc(-c3ccccc3C#N)cc2)c2ccc(C(=O)N[C@@H](C)c3ccc(C(C)C)cc3)cc12 [Example 186, (S)-1-((2′-cyano-[1,1′-biphenyl]-4-yl)methyl)-N-(1-(4-isopropylphenyl)ethyl)-2,3-dimethyl-1H-indole-5-carboxamide]		IC50 (nM) Lantha [2]: inc
Cc1c(C)n(Cc2ccc(-c3ccccc3C(=O)O)cc2)c2ccc(C(=O)N[C@@H](C)c3ccc(S(C)(=O)=O)cc3)cc12 [Example 258, (S)-4′-((2,3-dimethyl-5-(1-(4-(methylsulfonyl)phenyl)ethylcarbamoyl)-1H-indol-1-yl)methyl)biphenyl-2-carboxylic acid]	636	
Cc1c(C)n(Cc2ccc(-c3ccccc3C(=O)O)cc2)c2ccc(C(=O)N[C@H](C)c3c(F)cncc3F)cc12 [Example 215, (R)-4′-((5-((1-(3,5-difluoropyridin-4-yl)ethyl)carbamoyl)-2,3-dimethyl-1H-indol-1-yl)methyl)-[1,1′-biphenyl]-2-carboxylic acid]	309	
Cc1c(C)n(Cc2ccc(-c3ccccc3C(=O)NC[C@@H](O)C(=O)N(C)C)cc2)c2ccc(C(=O)N[C@@H](C)c3cccc(C(C)C)c3)cc12 [Example 309, 1-((2′-(((R)-3-(Dimethylamino)-2-hydroxy-3-oxopropyl)carbamoyl)-[1,1′-biphenyl]-4-yl)methyl)-N-((S)-1-(3-isopropylphenyl)ethyl)-2,3-dimethyl-1H-indole-5-carboxamide]		IC50 [1]: > 1000 nM
CC[C@H](NC(=O)c1ccc2c(ccn2Cc2ccccc2-c2ccc(C(=O)O)cc2)c1)c1ccccc1 [Example 189, (S)-2′-((5-((1-phenylpropyl)carbamoyl)-1H-indol-1-yl)methyl)-[1,1′-biphenyl]-4-carboxylic acid]	100	
